Measured values published in US8362000B2, “Azetidinyl diamides as monoacylglycerol lipase inhibitors” (Janssen Pharmaceutica NV, priority 2009, dated 2013).
Changes are numbered by the printed parent chain. Like-named read-outs stand apart in the source and are kept apart here.

Assays:
mutant MGL = molecular target: T1, mutant MGL (Homo sapiens, UniProt Q99685, L169S/L176S); assay: MGL ThermoFluor assay - mutant; type: binding
T1 sequence (Q99685 1-303 L169S/L176S): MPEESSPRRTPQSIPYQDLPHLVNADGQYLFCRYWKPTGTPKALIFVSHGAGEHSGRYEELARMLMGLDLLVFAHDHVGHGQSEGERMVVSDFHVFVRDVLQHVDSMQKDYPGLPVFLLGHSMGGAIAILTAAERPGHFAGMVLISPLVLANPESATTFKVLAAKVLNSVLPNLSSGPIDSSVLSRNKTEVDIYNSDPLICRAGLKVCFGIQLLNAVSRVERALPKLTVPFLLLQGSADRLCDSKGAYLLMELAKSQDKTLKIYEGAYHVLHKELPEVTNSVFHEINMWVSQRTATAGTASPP

[1] = molecular target: T2, purified wild type MGL (wt-MGLL 6H-11-313) (Homo sapiens, UniProt Q99685)
T2 sequence (Q99685 1-303): T1 sequence (Q99685 1-303 L169S/L176S) with S169L, S176L

[2] = compound concentration measured by qNMR, read-out: MGL mutant ThermoFluor qKd (using qNMR conc.)
[3] = ThermoFluor concentration-response, read-out: MGL mutant ThermoFluor Kd
[4] = ThermoFluor, compound concentration measured by qNMR, read-out: MGL mutant ThermoFluor qKd (using qNMR conc.)
[5] = ThermoFluor thermal stability binding assay, read-out: MGL mutant ThermoFluor Kd

Row | Compound | IC50 [1] [µM] | Kd (mutant MGL; [3]) [µM] | further results
1 | O=C(c1ccc2nc(C(F)(F)F)cc(Cl)c2c1)N1CCN(C2CN(C(=O)c3nccs3)C2)CC1 [Cpd 842] | 5.53 | 0.986 | 
2 | O=C(c1cc2ccc(C(F)(F)F)nc2o1)N1CC(N2CCN(C(=O)c3nccs3)CC2)C1 [Cpd 844] | 6.1 | 62.5 | 
3 | COc1ccc2cc(C(=O)N3CC(N4CCN(C(=O)c5nccs5)CC4)C3)c(C)nc2c1 [Cpd 845] | 6.42 |  | Kd (mutant MGL; [4]): 1.62 µM
4 | COc1ccc(C(C)(C)C)cc1C(=O)N1CC(N2CCN(C(=O)c3nccs3)CC2)C1 [Cpd 849] | 7.01 | 2.7 | 
5 | O=C(c1ccc2c(c1)ncn2CCC(F)(F)F)N1CC(N2CCN(C(=O)c3cscn3)CC2)C1 [Cpd 851] | 7.87 |  | Kd (mutant MGL; [2]): 0.883 µM
6 | O=C(c1ccc2[nH]c(C3CCCCC3)nc2c1)N1CCN(C2CN(C(=O)c3cscn3)C2)CC1 [Cpd 853] | 8.34 | 1 | 
7 | O=C(c1ccc2[nH]ccc2c1)N1CC(N2CCN(C(=O)c3ccc[nH]3)CC2)C1 [Cpd 856] | 8.49 |  | Kd (mutant MGL; ThermoFluor, compound concentration measured by qNMR, read-out: MGL mutant ThermoFluor qKd (μM) (using qNMR conc.)): 0.855 µM
8 | Cc1nc2cc(C(=O)N3CC(N4CCN(C(=O)c5cscn5)CC4)C3)ccc2n1CC(F)(F)F [Cpd 858] | 8.77 |  | Kd (mutant MGL; [2]): 0.561 µM
9 | O=C(c1ccc2nc(C(F)(F)F)cc(Cl)c2c1)N1CCN(C2CN(C(=O)c3cscn3)C2)CC1 [Cpd 859] | 8.81 | 1.43 | 
10 | O=C(c1cc2cc(Br)cnc2o1)N1CC(N2CCN(C(=O)c3nccs3)CC2)C1 [Cpd 864] | 10.2 | 2.41 | 
11 | O=C(c1cscn1)N1CCN(C2CN(C(=O)c3cc4ccc(C(F)(F)F)nc4[nH]3)C2)CC1 [Cpd 865] | 10.3 |  | Kd (mutant MGL; [4]): 2.5 µM
12 | Cc1c(C(=O)N2CC(N3CCN(C(=O)c4nccs4)CC3)C2)sc2ccc(C(F)(F)F)cc12 [Cpd 897] | < 0.005 |  | Kd (mutant MGL; [5]): 0.002 µM
13 | O=C(c1ccc2c(c1)[nH]c(=O)n2C1CCC(F)(F)CC1)N1CC(N2CCN(C(=O)c3nccs3)CC2)C1 [Cpd 932] | 0.104 | 0.008 | 
14 | O=C(c1ccc2c(c1)[nH]c(=O)n2-c1ccccc1)N1CC(N2CCN(C(=O)c3nccs3)CC2)C1 [Cpd 933, 1-Phenyl-5-({3-[4-(1,3-thiazol-2-ylcarbonyl)piperazin-1-yl]azetidin-1-yl}carbonyl)-1,3-dihydro-2H-benzimidazol-2-one] | 0.191 | 0.034 | 
15 | O=C(c1ccc2c(c1)[nH]c(=O)n2-c1ccc(F)cc1)N1CC(N2CCN(C(=O)c3nccs3)CC2)C1 [Cpd 934, 1-(4-Fluorophenyl)-5-({3-[4-(1,3-thiazol-2-ylcarbonyl)piperazin-1-yl]azetidin-1-yl}carbonyl)-1,3-dihydro-2H-benzimidazol-2-one] | 0.174 | 0.025 | 
16 | O=C(c1ccc2c(c1)[nH]c(=O)n2-c1ccc(F)c(F)c1)N1CC(N2CCN(C(=O)c3nccs3)CC2)C1 [Cpd 935] | 0.1 | 0.034 | 
17 | O=C(c1ccc2c(c1)[nH]c(=O)n2CCC(F)(F)F)N1CC(N2CCN(C(=O)c3nccs3)CC2)C1 [Cpd 938] | 0.698 | 0.091 | 
18 | O=C(c1ccc2c(c1)[nH]c(=O)n2-c1ccc(C(F)(F)F)cc1)N1CC(N2CCN(C(=O)c3cscn3)CC2)C1 [Cpd 942] | 0.216 | 0.135 | 
19 | O=C(c1ccc2c(c1)[nH]c(=O)n2CCC(F)(F)F)N1CC(N2CCN(C(=O)c3cscn3)CC2)C1 [Cpd 944] | 7.32 | 0.802 | 
20 | CN(c1ccccc1)S(=O)(=O)c1ccc(C(=O)N2CC(N3CCN(C(=O)c4nccs4)CC3)C2)cc1 [Cpd 946] | 1 |  | Kd (mutant MGL; [4]): 1.69 µM

Continued, in another order:

Row | IC50 [1] [µM] | Kd (mutant MGL; [3]) [µM] | Compound | further results
21 | 5.26 |  | O=C(c1ccc2c(c1)ncn2CC(F)(F)F)N1CC(N2CCN(C(=O)c3cscn3)CC2)C1 [Cpd 841] | Kd (mutant MGL; [2]): 0.917 µM
22 | 5.53 | 2.13 | O=C(c1ccc(N2CCS(=O)(=O)CC2)cc1)N1CC(N2CCN(C(=O)c3nccs3)CC2)C1 [Cpd 843] | 
23 | 6.9 | 0.833 | O=C(c1ccc2nc(C(F)(F)F)cc(Cl)c2c1)N1CC(N2CCN(C(=O)c3cscn3)CC2)C1 [Cpd 848] | 
24 | 7.28 | 1 | COc1ccc2c(C)c(C(=O)N3CC(N4CCN(C(=O)c5cscn5)CC4)C3)oc2c1 [Cpd 850] | 
25 | 8.72 | 3.33 | COc1cccc2c(C)c(C(=O)N3CCN(C4CN(C(=O)c5cscn5)C4)CC3)[nH]c12 [Cpd 857] | 
26 | 8.82 | 1.76 | O=C(c1cc2ccc(C(F)(F)F)nc2o1)N1CCN(C2CN(C(=O)c3nccs3)C2)CC1 [Cpd 860] | 
27 | 9.22 |  | CC(C)(C)OC(=O)N1CCc2cccc(C(=O)N3CC(N4CCN(C(=O)c5cscn5)CC4)C3)c2C1 [Cpd 861] | Kd (mutant MGL; [5]): 2.63 µM
28 | 9.51 | > 21.9 | Cc1c(C(=O)N2CC(N3CCN(C(=O)c4cscn4)CC3)C2)oc2ccc(F)cc12 [Cpd 862] | 
29 | 10.2 |  | O=C(c1cc2nc(C(F)(F)F)ccc2[nH]1)N1CC(N2CCN(C(=O)c3nccs3)CC2)C1 [Cpd 863] | Kd (mutant MGL; [4]): 4.37 µM
30 | 10.3 |  | Cc1nc2cc(C(=O)N3CC(N4CCN(C(=O)c5cscn5)CC4)C3)ccc2n1CCC(F)(F)F [Cpd 866] | Kd (mutant MGL; [2]): 0.824 µM
31 | 12.1 |  | Cc1c(C(=O)N2CC(N3CCN(C(=O)c4nccs4)CC3)C2)nc2ccc(Br)cn12 [Cpd 868] | Kd (mutant MGL; [4]): > 23.1 µM
32 | 12.9 |  | O=C(c1ccc(Oc2ccccn2)cc1)N1CC(N2CCN(C(=O)C(F)(F)F)CC2)C1 [Cpd 869] | Kd (mutant MGL; [2]): 6.2 µM
33 | 14 |  | O=C(c1ccc(Oc2ccc(Br)cn2)cc1)N1CC(N2CCN(C(=O)C(F)(F)F)CC2)C1 [Cpd 872] | Kd (mutant MGL; [2]): 10 µM
34 | 14.7 |  | O=C(c1cn2cc(Br)ccc2n1)N1CC(N2CCN(C(=O)c3nccs3)CC2)C1 [Cpd 873] | Kd (mutant MGL; [4]): 9.2 µM
35 | 15.2 |  | O=C(c1ccccc1)c1c[nH]c(C(=O)N2CC(N3CCN(C(=O)c4nccs4)CC3)C2)c1 [Cpd 874] | Kd (mutant MGL; [4]): 8.46 µM
36 | 0.013 | 0.012 | O=C(c1ccc2c(c1)[nH]c(=O)n2-c1ccc(C(F)(F)F)cc1)N1CC(N2CCN(C(=O)c3nccs3)CC2)C1 [Cpd 936] | 
37 | 0.25 | 0.096 | O=C(c1ccc2c(c1)[nH]c(=O)n2CC(F)(F)F)N1CC(N2CCN(C(=O)c3nccs3)CC2)C1 [Cpd 937] | 
38 | 2.36 | 0.302 | O=C(c1ccc2c(c1)[nH]c(=O)n2-c1ccccc1)N1CC(N2CCN(C(=O)c3cscn3)CC2)C1 [Cpd 939] | 
39 | 2.24 | 0.259 | O=C(c1ccc2c(c1)[nH]c(=O)n2-c1ccc(F)cc1)N1CC(N2CCN(C(=O)c3cscn3)CC2)C1 [Cpd 940] | 
40 | 1.37 | 0.389 | O=C(c1ccc2c(c1)[nH]c(=O)n2-c1ccc(F)c(F)c1)N1CC(N2CCN(C(=O)c3cscn3)CC2)C1 [Cpd 941] | 
41 | 10.4 | 1.05 | O=C(c1ccc2c(c1)[nH]c(=O)n2CC(F)(F)F)N1CC(N2CCN(C(=O)c3cscn3)CC2)C1 [Cpd 943] | 
42 | 1.48 | 0.083 | O=C(c1ccc2c(c1)[nH]c(=O)n2C1CCC(F)(F)CC1)N1CC(N2CCN(C(=O)c3cscn3)CC2)C1 [Cpd 945] | 
43 | 1.06 |  | O=C(c1ccc(S(=O)(=O)N2CCCCC2)cc1)N1CC(N2CCN(C(=O)c3nccs3)CC2)C1 [Cpd 947] | Kd (mutant MGL; [4]): 0.653 µM
44 | 0.163 | 0.178 | O=C(c1ccc(Cl)nc1)c1c[nH]c2cc(C(=O)N3CC(N4CCN(C(=O)c5nccs5)CC4)C3)ccc12 [Cpd 949] | 
